Reference: US5821240A, “Pyrimido[5,4]-dipyrimidines, pharmaceuticals containing them, their use and processes for the preparation thereof” (Dr. Karl Thomae GmbH, priority 1996, dated 1998)

How the values were obtained:
[1] = system: F/L-HERc cells expressing human EGF-R; experiment: Inhibition of EGF-dependent proliferation of F/L-HERc cells; format: cell-based, murine cell line; human EGF-R; conditions: EGF 20 ng/ml, 37° C., 48 hours
Text: (§1) In this case, an interleukin-3 (IL-3)-dependent cell line of murine origin was used and was genetically modified in such a way that it expresses functional human EGF-R. Proliferation of these cells, which are called F/L-HERc, can therefore be stimulated either by murine IL-3 or by EGF (see von Ruden, T. et al. in EMBO J. 7, 2749-2756 (1988) and Pierce, J. H. et al. in Science 239, […] (1988)).
(§2) The starting material for the F/L-HERc cells was the cell line FDC-P1 whose preparation has been described by Dexter, T. M. et al. in J. Exp. Med. 152, 1036-1047 (1980). However, it is also possible as an alternative to use other growth factor-dependent cells (see, for example, Pierce, J. H. et al. in Science 239, 628-631 (1988), Shibuya, H. et al. in Cell 70, 57-67 (1992) and Alexander, W. S. et al. in EMBO J. 10, 3683-3691 (1991)). Recombinant retroviruses as described in von Ruden, T. et al., EMBO J. 7, 2749-2756 (1988) Were used for expression of the human EGF-R cDNA (see Ullrich, A. et al. in Nature 309, 418-425 (1984)), with the difference that the retroviral vector LXSN (see Miller, A. D. et al. in BioTechniques 7, 980-990 (1989)) was employed for expression of the EGF-R cDNA, and the line GP+E86 (see Markowitz, D. et al. in J. Virol. 62, 1120-1124 (1988)) was used as packaging cell.
(§3) F/L-HERc cells were cultivated in RPMI/1640 medium (BioWhittaker), supplemented with 10% fetal calf serum (FCS, Boehringer Mannheim), 2 mM glutamine (BioWhittaker), standard antibiotics and 20 ng/ml human EGF (Promega), at 37° C. and 5% CO2. To investigate the inhibitor activity of the compounds according to the invention, 1.5×10^4 cells were cultivated in the above medium (200 μl) per well in triplicates in 96-well plates, stimulating proliferation of the cells either with EGF (20 ng/ml) or with murine IL-3. The source used for IL-3 was culture supernatants from the cell line X63/0 mIL-3 (see Karasuyama, H. et al. in Eur. J. Immunol. 18, 97-104 (1988)). The compounds according to the invention were dissolved in 100% dimethyl sulphoxide (DMSO) and added in various dilutions to the cultures, with the maximum DMSO concentration being 1%. The cultures were incubated at 37° C. for 48 hours.
(§4) To determine the inhibitory activity of the compounds according to the invention, the relative cell count was measured in O.D. units using the Cell Titre 96™ AQueous Non-Radioactive Cell Proliferation Assay (Promega). The relative cell count was calculated as a percent of the control (F/L-HERc cells without inhibitor), and the concentration of active substance which inhibits the proliferation of the cells by 50% (IC50) was inferred.

F/L-HERc cells = experiment: Inhibition of IL-3-dependent proliferation of F/L-HERc cells; format: cell-based; conditions: Mus musculus, murine IL-3, 37° C., 48 hours
Text: as §1, §2, §3, §4

| SMILES | IC50 [1] | IC50 (F/L-HERc cells) |
| --- | --- | --- |
| COC(=O)NC1CCN(c2ncc3ncnc(Nc4ccc(F)c(Cl)c4)c3n2)CC1 [1(1), 4-[(3-Chloro-4-fluorophenyl)amino]-6-[4-methoxycarbonylamino-1-piperidinyl]pyrimido[5,4-d]pyrimidine] | 34 nM | > 10000 nM |
| CC(C)(C)OC(=O)N1CCC(Nc2ncc3ncnc(Nc4ccc(F)c(Cl)c4)c3n2)CC1 [1(2), 4-[(3-Chloro-4-fluorophenyl)amino]-6-[1-tert-butyloxycarbonyl-4-piperidinylamino]pyrimido[5,4-d]pyrimidine] | 44 nM | > 10000 nM |
| Nc1c(Br)cc(Nc2ncnc3cnc(N4CCC(N)CC4)nc23)cc1Br [1(3), 4-[(4-Amino-3,5-dibromophenyl)amino]-6-[4-amino-1-piperidinyl]pyrimido[5,4-d]pyrimidine] | 67 nM | > 1000 nM |
| O=CNC1CCN(c2ncc3ncnc(Nc4ccc(F)c(Cl)c4)c3n2)CC1 [1(5), 4-[(3-Chloro-4-fluorophenyl)amino]-6-[4-formylamino-1-piperidinyl]pyrimido[5,4-d]pyrimidine] | 21 nM | > 10000 nM |
| NCCNc1ncc2ncnc(Nc3ccc(F)c(Cl)c3)c2n1 [1(6), 4-[(3-Chloro-4-fluorophenyl)amino]-6-[2-aminoethylamino]-pyrimido[5,4-d]pyrimidine] | 123 nM | > 10000 nM |
| NCCCNc1ncc2ncnc(Nc3ccc(F)c(Cl)c3)c2n1 [1(9), 4-[(3-Chloro-4-fluorophenyl)amino]-6-[3-aminopropylamino]pyrimido[5,4-d]pyrimidine] | 18 nM | > 10000 nM |
| NCCCCNc1ncc2ncnc(Nc3ccc(F)c(Cl)c3)c2n1 [1(10), 4-[(3-Chloro-4-fluorophenyl)amino]-6-[4-aminobutylamino]pyrimido[5,4-d]pyrimidine] | 17 nM | > 10000 nM |
| CC(N)CNc1ncc2ncnc(Nc3ccc(F)c(Cl)c3)c2n1 (stereo not shown) [1(11), 4-[(3-Chloro-4-fluorophenyl)amino]-6-[2-amino-1-propylamino]pyrimido[5,4-d]pyrimidine] | 75 nM | > 10000 nM |
| CN1CCCN(c2ncc3ncnc(Nc4ccc(F)c(Cl)c4)c3n2)CC1 [1(12), 4-[(3-Chloro-4-fluorophenyl)amino]-6-[4-methyl-1-homopiperazinyl]pyrimido[5,4-d]pyrimidine] | 375 nM | > 10000 nM |
| Fc1ccc(Nc2ncnc3cnc(N4CCCNCC4)nc23)cc1Cl [1(13), 4-[(3-Chloro-4-fluorophenyl)amino]-6-[1-homopiperazinyl]-pyrimido[5,4-d]pyrimidine] | 150 nM | > 10000 nM |
| Nc1ccc(CNc2ncc3ncnc(Nc4ccc(F)c(Cl)c4)c3n2)cc1 [1(14), 4-[(3-Chloro-4-fluorophenyl)amino]-6-[4-aminobenzylamino]pyrimido[5,4-d]pyrimidine] | 28 nM | > 10000 nM |
| COC(=O)[C@H]1CC[C@H](Nc2ncc3ncnc(Nc4cc(Cl)c(N)c(Cl)c4)c3n2)CC1 [1(15), 4-[(4-Amino-3,5-dichlorophenyl)amino]-6-[(trans-4-methoxycarbonylcyclohexyl)amino]pyrimido[5,4-d]pyrimidine] | 15 nM | > 10000 nM |
| CCN(CCO)c1ncc2ncnc(Nc3ccc(F)c(Cl)c3)c2n1 [1(23), 4-[(3-Chloro-4-fluorophenyl)amino]-6-[N-ethyl-N-(2-hydroxyethyl)amino]pyrimido[5,4-d]pyrimidine] | 63 nM | > 1000 nM |
| Fc1ccc(Nc2ncnc3cnc(NCC45CCN(CC4)CC5)nc23)cc1Cl [1(24), 4-[(3-Chloro-4-fluorophenyl)amino]-6-[4-quinuclidinylmethylamino]pyrimido[5,4-d]pyrimidine] | 9 nM | > 1000 nM |
| COC(CNc1ncc2ncnc(Nc3ccc(F)c(Cl)c3)c2n1)OC [1(25), 4-[(3-Chloro-4-fluorophenyl)amino]-6-[2,2-dimethoxyethylamino]pyrimido[5,4-d]pyrimidine] | 28 nM | > 20000 nM |
| CC(C)(C)OC(=O)N1CCC(CNc2ncc3ncnc(Nc4ccc(F)c(Cl)c4)c3n2)CC1 [1(26), 4-[(3-Chloro-4-fluorophenyl)amino]-6-[(1-tert-butyloxycarbonyl-4-piperidinyl)methylamino]pyrimido[5,4-d]pyrimidine] | 200 nM | > 20000 nM |
| CC(C)(N)CNc1ncc2ncnc(Nc3ccc(F)c(Cl)c3)c2n1 [1(27), 4-[(3-Chloro-4-fluorophenyl)amino]-6-[2-amino-2-methyl-1-propylamino]pyrimido[5,4-d]pyrimidine] | 40 nM | > 10000 nM |
| CN1CCC(N(C)c2ncc3ncnc(Nc4ccc(F)c(Cl)c4)c3n2)CC1 [1(28), 4-[(3-Chloro-4-fluorophenyl)amino]-6-[N-methyl-N-(1-methyl-4-piperidinyl)amino]pyrimido[5,4-d]pyrimidine] | 14 nM | 10000 nM |
| Fc1ccc(Nc2ncnc3cnc(NCC4CCNCC4)nc23)cc1Cl [1(29), 4-[(3-Chloro-4-fluorophenyl)amino]-6-[4-piperidinylmethylamino]pyrimido[5,4-d]pyrimidine] | 13 nM | > 20000 nM |
| Fc1ccc(Nc2ncnc3cnc(N4CCC(N5CCOCC5)CC4)nc23)cc1Cl [1(30), 4-[(3-Chloro-4-fluorophenyl)amino]-6-[4-(morpholino)-1-Piperidinyl]pyrimido[5,4-d]pyrimidine] | 125 nM | > 20000 nM |
| Fc1ccc(Nc2ncnc3cnc(N4CCC(N5CCCC5)CC4)nc23)cc1Cl [1(31), 4-[(3-Chloro-4-fluorophenyl)amino]-6-[4-(1-pyrrolidinyl)-1-piperidinyl]pyrimido[5,4-d]pyrimidine] | 103 nM | 10000 nM |
| COc1cccc(N2CCN(c3ncc4ncnc(Nc5ccc(F)c(Cl)c5)c4n3)CC2)c1 [1(32), 4-[(3-Chloro-4-fluorophenyl)amino]-6-[4-(3-methoxyphenyl)-1-piperazinyl]pyrimido[5,4-d]pyrimidine] | > 1000 nM | > 20000 nM |
| COc1ccccc1N1CCN(c2ncc3ncnc(Nc4ccc(F)c(Cl)c4)c3n2)CC1 [1(33), 4-[(3-Chloro-4-fluorophenyl)amino]-6-[4-(2-methoxyphenyl)-1-piperazinyl]pyrimido[5,4-d]pyrimidine] | > 1000 nM | > 20000 nM |
| CC(C)(C)OC(=O)N1CCN(CCNc2ncc3ncnc(Nc4ccc(F)c(Cl)c4)c3n2)CC1 [1(35), 4-[(3-Chloro-4-fluorophenyl)amino]-6-[2-(4-tert-butyloxycarbonyl-1-piperazinyl)ethylamino]pyrimido[5,4-d]pyrimidine] | 240 nM | > 1000 nM |
| CC1CC(c2ccc(O)cc2)CN1c1ncc2ncnc(Nc3ccc(F)c(Cl)c3)c2n1 (stereo not shown) [1(36), 4-[(3-Chloro-4-fluorophenyl)amino]-6-[4-(4-hydroxyphenyl)-2-methyl-1-pyrrolidinyl]pyrimido[5,4-d]pyrimidine] | 140 nM | > 1000 nM |
| NCC1CCCC(CNc2ncc3ncnc(Nc4ccc(F)c(Cl)c4)c3n2)C1 (stereo not shown) [1(38), 4-[(3-Chloro-4-fluorophenyl)amino]-6-[3-(aminomethyl)cyclohexylmethylamino]pyrimido[5,4-d]pyrimidine] | 51 nM | > 1000 nM |
| CN1CCC(C2CCN(c3ncc4ncnc(Nc5ccc(F)c(Cl)c5)c4n3)CC2)CC1 [1(41), 4-[(3-Chloro-4-fluorophenyl)amino]-6-[4-(1-methyl-4-piperidinyl)-1-piperidinyl]pyrimido[5,4-d]pyrimidine] | 200 nM | > 1000 nM |
| Fc1ccc(Nc2ncnc3cnc(NC4CCCN(Cc5ccccc5)CC4)nc23)cc1Cl (stereo not shown) [1(42), 4-[(3-Chloro-4-fluorophenyl)amino]-6-[1-benzyl-4-(1-azacycloheptyl)amino]pyrimido[5,4-d]pyrimidine] | > 100 nM | > 1000 nM |
| CN1CCN(C2CCC(Nc3ncc4ncnc(Nc5ccc(F)c(Cl)c5)c4n3)CC2)CC1 (stereo not shown) [1(46), 4-[(3-Chloro-4-fluorophenyl)amino]-6-[4-(1-methyl-4-piperazinyl)cyclohexylamino]pyrimido[5,4-d]pyrimidine] | 2 nM | > 1000 nM |
